Where a SMILES comes first, the peptide text is derived from it. The star is where a group is joined. X1 = CC1(C)N(O)C(c2ccc(OCC(=O)*)cc2)=[N+]([O-])C1(C)C

The species named for test [1] is Oryctolagus cuniculus. The test is described as follows: Maximum rate of ADP induced platelet aggregation was determined in rabbit blood at a dose of 10-5 mol/L (in vitro). It is filed as functional.
The species entered for test [2] is Oryctolagus cuniculus. The test is described as follows: Maximum rate of ADP induced platelet aggregation was determined in rabbit blood at a dose of 10-6 mol/L (in vitro). The class given is functional.
Test [3] is filed under the species Oryctolagus cuniculus. The experiment in a line: Maximum rate of ADP induced platelet aggregation was determined in rabbit blood at a dose of 10-7 mol/L (in vitro). The class given is functional.
The species entered for test [4] is Oryctolagus cuniculus. The test is described as follows: Maximum rate of PAF induced platelet aggregation was determined in rabbit blood at a dose of 10-5 mol/L (in vitro). It is filed as functional.
Test [5] is filed under the species Oryctolagus cuniculus. The experiment in a line: Maximum rate of PAF induced platelet aggregation was determined in rabbit blood at a dose of 10-6 mol/L (in vitro). It is filed as functional.
Test [6] is filed under the species Oryctolagus cuniculus. The test is described as follows: Maximum rate of PAF induced platelet aggregation was determined in rabbit blood at a dose of 10-7 mol/L (in vitro). The class given is functional.
Test [7] relates to Rattus norvegicus. The test is described as follows: Effect on the dry thrombus weight in male wistar rat was determined(in vivo). The class given is functional.
Test [8] concerns Rattus norvegicus. The test is described as follows: Effect on the wet thrombus weight in male wistar rat was determined(in vivo). The class given is functional. More on the design: unit not given beside the values.
Test [9] is filed under the species Rattus norvegicus. The test is described as follows: Compound tested for inhibition of Ach-induced vasorelaxation was determined in rat aortic strips. The class given is functional, Aorta. On the set-up: concentration or dose not given beside the values.

On to `CC1(C)N(O)C(c2ccc(OCC(=O)N[C@@H](CCCN=C(N)N)C(=O)NCC(=O)N[C@@H](CC(=O)O)C(=O)N[C@@H](CO)C(=O)O)cc2)=[N+]([O-])C1(C)C` (X1-RGDS-OH), for which the Am in test [1] is on record as 16.91%; in [2] it was 40.05%; in test [3], 51.46%; in test [4] it was 22.05%; in test [5] it was 35.11%; in test [6], 52.1%. Moreover, the Activity in [7] was found to be 5.08; in test [8], 32.09. In addition, the Inhibition in test [9] is 88.9%.
As to `CC1(C)N(O)C(c2ccc(OCC(=O)N[C@@H](CCCN=C(N)N)C(=O)NCC(=O)N[C@@H](CC(=O)O)C(=O)N[C@@H](Cc3ccccc3)C(=O)O)cc2)=[N+]([O-])C1(C)C` (X1-RGDF-OH), the Am came out at 10.21% in test [1]; 20.66% in test [2]; 35.25% in test [3]; 9.98% in test [4]; 24.26% in test [5]; 50.02% in [6]. Moreover, the Activity in test [7] came out at 3.16; in test [8], 24.3. The compound also yielded an Inhibition in test [9] of 88.9%.
As for `N=C(N)NCCC[C@H](N)C(=O)NCC(=O)N[C@@H](CC(=O)O)C(=O)N[C@@H](CO)C(=O)O`, the Am in [1] is 17.02%; in [2] it was 40.14%; in test [3], 53.55%; in test [4], 22.66%; in [5], 37.1%; in [6] it was 54.21%. The Activity was determined as 6.68 in test [7] and 36.96 in test [8]. Moreover, the Inhibition in [9] amounted to 3.2%.
As to `N=C(N)NCCC[C@H](N)C(=O)NCC(=O)N[C@@H](CC(=O)O)C(=O)N[C@@H](Cc1ccccc1)C(=O)O` (H-RGDF-OH), the Am is 10.13% in test [1]; 24.15% in [2]; 33.76% in test [3]; 10.22% in test [4]; 25.18% in test [5]; 51.88% in test [6]. Also, the Activity was 3.94 in test [7] and 25.61 in test [8]. This compound came in with an Inhibition in [9] of 2.6%.
Take `CC1(C)N(O)C(c2ccc(OCC(=O)O)cc2)=[N+]([O-])C1(C)C`: the Am in test [1] stood at 51.6%; in [2], 51.96%; in test [3], 54.68%; in test [4], 52.92%; in test [5] it was 52.98%; in test [6], 54.25%. Moreover, the Activity in [7] was 6.17; in [8], 38.1. This compound also showed an Inhibition in test [9] of 99.2%.
As to `CC(C)[C@H](NC(=O)[C@H](CC(=O)O)NC(=O)CNC(=O)[C@H](CCCN=C(N)N)NC(=O)COc1ccc(C2=[N+]([O-])C(C)(C)C(C)(C)N2O)cc1)C(=O)O` (X1-RGDV-OH), the Am was 11.85% in test [1]; 24.99% in test [2]; 49.98% in [3]; 20.45% in test [4]; 33.22% in test [5]; 50.88% in test [6]. For the same compound, the Activity is listed as 4.07 in [7] and 29.49 in test [8]. The same compound showed an Inhibition in test [9] of 91.2%.
For `CC(=O)Oc1ccccc1C(=O)O` [ASPIRIN], the Am in [1] amounted to 30.01%; in test [2], 42.58%; in test [3], 54.89%; in test [4] it was 29.99%; in test [5] it was 36.98%; in test [6], 53.42%. Moreover, the Activity in test [7] was 3.99; in [8], 28.11.
With `CC(C)[C@H](NC(=O)[C@H](CC(=O)O)NC(=O)CNC(=O)[C@@H](N)CCCNC(=N)N)C(=O)O` (H-RGDV-OH), the Am is reported as 12.07% in test [1]; 28.9% in test [2]; 50.06% in [3]; 20.5% in test [4]; 35.11% in test [5]; 52.66% in [6]. The Activity in test [7] was found to be 5.13; in test [8], 32.62. In [9], this compound displayed an Inhibition of 2.4%.

As usually defined, the Inhibition is the change of the read-out against control, counted positive when it falls.

The values above are taken from ChEMBL document CHEMBL1136439, “Synthesis and bioactivities of nitronyl nitroxide and RGD containing pseudopeptides” (2003).
